According to patent publication US11304964B2, “Bolaamphiphilic compounds, compositions and uses thereof” (priority 2012, dated 2022):

Test: Tenofovir encapsulation in bolaamphiphile vesicles (UV absorbance after Sephadex G50 separation)
Format: physicochemical
Protocol: Bolaamphiphiles, cholesterol, and CHMES (2:1:1 mole ratio) are dissolved in chloroform or a suitable solvent. […] The solvents are evaporated under vacuum and the resultant thin films are hydrated in 0.2 mg/mL CF solution in PBS and probe-sonicated (Vibra-Cell VCX130 sonicator, Sonics and Materials Inc., Newtown, Conn., USA) with amplitude 20%, pulse on: 15 sec, pulse off: 10 sec to achieve homogenous vesicle dispersions. Vesicle size and zeta potential were determined using a Zetasizer Nano ZS (Malvern Instruments, UK).
Methods were established to determine quantitatively the amount of the encapsulated tenofovir based on a UV absorption and determined the percent of tenofovir encapsulation by various vesicle formulations (data not shown). […] One objective of this work was to achieve the maximum amount of tenofovir encapsulated per vesicle along with a minimum loss of the non-encapsulated drug. Accordingly, several parameters were examined, such as varying the ratio among the vesicle components, changing the ratio of tenofovir to bolaamphiphiles, varying the pH of the hydration solution and also adding to the formulation additional additives, in the attempt to increase the encapsulation capacity of the vesicles.
In particular, in order to maximize tenofovir encapsulation the following parameters were studied: (1) tenofovir to GLH ratio; (2) adjusting the concentrations of cholestyrl hemisuccinate (CHEM) and cholesterol (CHOL), components that are used in the vesicle formulation, (3) examining several buffers and pHs in the encapsulation process, (4) time of sonication, and (5) tenofovir concentration, and (6) addition of stearyl amine to the vesicle formulation to enhance encapsulation by complexation with tenofovir.
The vesicles were prepared from formulations with and without SA and the non-encapsulated tenofovir (free tenofovir) was separated from the encapsulated tenofovir on Sephadex G50 column and the absorbance at 260 nm of each fraction collected from the column was read.

[1] = HEPES pH 7.5, GLH 19/20 (2:1) 10 mg/ml, SA 1.25 mg/ml, tenofovir 5 mg/ml, standard CHOL/CHEMS
[2] = HEPES pH 7.5, GLH 19/20 (2:1) 10 mg/ml, SA 2.5 mg/ml, tenofovir 5 mg/ml, standard CHOL/CHEMS
[3] = HEPES pH 7.5, GLH 19/20 (2:1) 10 mg/ml, SA 3.5 mg/ml, tenofovir 5 mg/ml, standard CHOL/CHEMS
[4] = HEPES pH 7.5, GLH 19/20 (2:1) 10 mg/ml, tenofovir 1 mg/ml, standard CHOL/CHEMS
[5] = HEPES pH 7.5, GLH 19/20 (2:1) 10 mg/ml, tenofovir 2 mg/ml, ½ the standard amount of cholesterol and cholesteryl hemisuccinate
[6] = HEPES pH 7.5, GLH 19/20 (2:1) 15 mg/ml, SA 2.5 mg/ml, tenofovir 5 mg/ml, standard CHOL/CHEMS
[7] = HEPES pH 7.5, GLH 19/20 (2:1) 15 mg/ml, tenofovir 1 mg/ml, standard CHOL/CHEMS
[8] = HEPES pH 7.5, GLH 19/20 (2:1) 15 mg/ml, tenofovir 2 mg/ml, ½ the standard amount of cholesterol and cholesteryl hemisuccinate
[9] = HEPES pH 8, GLH 19/20 (2:1) 15 mg/ml, SA 2.5 mg/ml, tenofovir 5 mg/ml, standard CHOL/CHEMS
[10] = HEPES pH 8, GLH 19/20 (2:1) 15 mg/ml, tenofovir 1 mg/ml, standard CHOL/CHEMS
[11] = TRIS pH 8, GLH 19/20 (2:1) 10 mg/ml, SA 2.5 mg/ml, tenofovir 5 mg/ml, standard CHOL/CHEMS
[12] = TRIS pH 8, GLH 19/20 (2:1) 10 mg/ml, tenofovir 1 mg/ml, standard CHOL/CHEMS
[13] = TRIS pH 8, GLH 19/20 (2:1) 10 mg/ml, tenofovir 2 mg/ml, standard CHOL/CHEMS
[14] = TRIS pH 8, GLH 19/20 (2:1) 10 mg/ml, tenofovir 5 mg/ml, standard CHOL/CHEMS
[15] = TRIS pH 8, GLH 19/20 (2:1) 20 mg/ml, tenofovir 5 mg/ml, standard CHOL/CHEMS

## C[C@H](Cn1cnc2c(N)ncnc21)OCP(=O)(O)O [tenofovir, ({[(2R)-1-(6-amino-9H-purin-9-yl)propan-2-yl]oxy}methyl)phosphonic acid]
[1]
  % tenofovir encapsulation: 15.9%
  Ratio of tenofovir encapsulated to bolaamphiphiles: 0.062 mg/mg
[2]
  % tenofovir encapsulation: 21.4%
  Ratio of tenofovir encapsulated to bolaamphiphiles: 0.107 mg/mg
HEPES pH 7.5, GLH 19/20 (2:1) 10 mg/ml, SA 2.5 mg/ml, tenofovir 5 mg/ml, ½ the standard amount of cholesterol and cholesteryl hemisuccinate
  % tenofovir encapsulation: **22%
[3]
  % tenofovir encapsulation: 30.9%
  Ratio of tenofovir encapsulated to bolaamphiphiles: 0.155 mg/mg
[4]
  % tenofovir encapsulation: 17.4%
  mg tenofovir encapsulated/mg bola: 0.026 mg tenofovir encapsulated/mg bola
HEPES pH 7.5, GLH 19/20 (2:1) 10 mg/ml, tenofovir 2 mg/ml, standard CHOL/CHEMS
  mg tenofovir encapsulated/mg bola: 0.024 mg tenofovir encapsulated/mg bola
[5]
  % tenofovir encapsulation: **16.5%
  mg tenofovir encapsulated/mg bola: **0.033 mg tenofovir encapsulated/mg bola
HEPES pH 7.5, GLH 19/20 (2:1) 10 mg/ml, tenofovir 5 mg/ml, standard CHOL/CHEMS
  % tenofovir encapsulation: 7.8%
HEPES pH 7.5, GLH 19/20 (2:1) 10 mg/ml, tenofovir 7.5 mg/ml, standard CHOL/CHEMS
  % tenofovir encapsulation: 3.8%
[6]
  % tenofovir encapsulation: 18.6%
  Ratio of tenofovir encapsulated to bolaamphiphiles: 0.08 mg/mg
[7]
  % tenofovir encapsulation: 38.6%
  mg tenofovir encapsulated/mg bola: 0.026 mg tenofovir encapsulated/mg bola
HEPES pH 7.5, GLH 19/20 (2:1) 15 mg/ml, tenofovir 2 mg/ml, standard CHOL/CHEMS
  % tenofovir encapsulation: 18.4, %
[8]
  % tenofovir encapsulation: **22.5%
  mg tenofovir encapsulated/mg bola: **0.033 mg tenofovir encapsulated/mg bola
[9]
  % tenofovir encapsulation: 23%
  Ratio of tenofovir encapsulated to bolaamphiphiles: 0.077 mg/mg
[10]
  % tenofovir encapsulation: 31.2%
  mg tenofovir encapsulated/mg bola: 0.021 mg tenofovir encapsulated/mg bola
TRIS pH 8, GLH 19/20 (2:1) 5 mg/ml, tenofovir 1 mg/ml in hydration solution, standard CHOL/CHEMS
  % tenofovir encapsulation: 4%
TRIS pH 8, GLH 19/20 (2:1) 5 mg/ml, tenofovir 1 mg/ml, standard CHOL/CHEMS
  mg tenofovir encapsulated/mg bola: 0.008 mg tenofovir encapsulated/mg bola
[11]
  % tenofovir encapsulation: 12.7%
  Ratio of tenofovir encapsulated to bolaamphiphiles: 0.064 mg/mg
[12]
  % tenofovir encapsulation: 11%
  mg tenofovir encapsulated/mg bola: 0.011 mg tenofovir encapsulated/mg bola
[13]
  % tenofovir encapsulation: 9%
  mg tenofovir encapsulated/mg bola: 0.018 mg tenofovir encapsulated/mg bola
[14]
  % tenofovir encapsulation: 6%
  mg tenofovir encapsulated/mg bola: 0.03 mg tenofovir encapsulated/mg bola
TRIS pH 8, GLH 19/20 (2:1) 15 mg/ml, tenofovir 1 mg/ml, standard CHOL/CHEMS
  mg tenofovir encapsulated/mg bola: 0.016 mg tenofovir encapsulated/mg bola
TRIS pH 8, GLH 19/20 (2:1) 15 mg/ml, tenofovir 1 mg/ml, standard CHOL/CHEMS, ±SEM
  % tenofovir encapsulation: 24.5 ± 2.1%
TRIS pH 8, GLH 19/20 (2:1) 15 mg/ml, tenofovir 2 mg/ml, standard CHOL/CHEMS
  mg tenofovir encapsulated/mg bola: 0.03 mg tenofovir encapsulated/mg bola
TRIS pH 8, GLH 19/20 (2:1) 15 mg/ml, tenofovir 2 mg/ml, standard CHOL/CHEMS, ±SEM
  % tenofovir encapsulation: 21 ± 2.1%
TRIS pH 8, GLH 19/20 (2:1) 15 mg/ml, tenofovir 5 mg/ml, standard CHOL/CHEMS
  mg tenofovir encapsulated/mg bola: 0.03 mg tenofovir encapsulated/mg bola
TRIS pH 8, GLH 19/20 (2:1) 15 mg/ml, tenofovir 5 mg/ml, standard CHOL/CHEMS, ±SEM
  % tenofovir encapsulation: 9 ± 1.4%
TRIS pH 8, GLH 19/20 (2:1) 20 mg/ml, tenofovir 1 mg/ml, standard CHOL/CHEMS
  mg tenofovir encapsulated/mg bola: 0.02 mg tenofovir encapsulated/mg bola
TRIS pH 8, GLH 19/20 (2:1) 20 mg/ml, tenofovir 1 mg/ml, standard CHOL/CHEMS, ±SEM
  % tenofovir encapsulation: 31.4 ± 4.5%
TRIS pH 8, GLH 19/20 (2:1) 20 mg/ml, tenofovir 2 mg/ml, standard CHOL/CHEMS
  mg tenofovir encapsulated/mg bola: 0.022 mg tenofovir encapsulated/mg bola
TRIS pH 8, GLH 19/20 (2:1) 20 mg/ml, tenofovir 2 mg/ml, standard CHOL/CHEMS, ±SEM
  % tenofovir encapsulation: 22.5 ± 3.5%
[15]
  % tenofovir encapsulation: 9.3%
  mg tenofovir encapsulated/mg bola: 0.023 mg tenofovir encapsulated/mg bola
Optimal formulation for PK: 10 mg GLH 19/20 2/1, 1 mg GLH-55b, 2.5 mg stearyl amine, 5 mg tenofovir per mL, HEPES
  % of the added tenofovir encapsulated: 20%
Optimal formulation used in first set of PK experiments
  amount of the encapsulated tenofovir: 1 mg/mL vesicles
Various vesicle formulations, conditions that yielded maximum encapsulation (before optimization)
  percent of tenofovir encapsulation: 18-20%
